Source: BindingDB's records for doi:10.1111/j.1471-4159.1989.tb07357.x (Albany Medical College, 1989)
pKi: −log10 of the molar value.

Key:
[1] = molecular target: 5-hydroxytryptamine receptor 1E (Homo sapiens, UniProt P28566)
[2] = molecular target: 5-hydroxytryptamine 1D receptor (Bos taurus, UniProt Q8MI13)
5-hydroxytryptamine 1D receptor, sequence (Q8MI13 whole entry): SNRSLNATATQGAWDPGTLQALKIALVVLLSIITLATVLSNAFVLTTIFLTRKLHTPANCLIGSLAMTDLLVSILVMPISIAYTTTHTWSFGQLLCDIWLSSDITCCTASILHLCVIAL

5-hydroxytryptamine receptor 1E, sequence (P28566 whole entry): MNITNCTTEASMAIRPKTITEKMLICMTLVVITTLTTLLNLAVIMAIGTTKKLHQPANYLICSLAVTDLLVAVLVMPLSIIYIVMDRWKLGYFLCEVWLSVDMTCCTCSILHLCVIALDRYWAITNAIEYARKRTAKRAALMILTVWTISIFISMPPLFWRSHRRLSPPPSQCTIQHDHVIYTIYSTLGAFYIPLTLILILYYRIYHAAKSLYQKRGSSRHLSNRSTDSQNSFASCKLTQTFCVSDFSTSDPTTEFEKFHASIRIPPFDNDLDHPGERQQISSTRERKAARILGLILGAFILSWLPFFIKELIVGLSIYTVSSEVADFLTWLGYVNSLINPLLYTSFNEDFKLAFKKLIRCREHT

Structure (SMILES)	pKi [1]	pKi [2]
COc1cc(CC(C)N)c(OC)cc1Br (stereo not drawn) [2-(4-Bromo-2,5-dimethoxy-phenyl)-1-methyl-ethylamine((-)-DOB)]	6.25	6.00
CCCN(CCC)C1CCc2cccc(O)c2C1 (stereo not given)	6.08	6.70
CN1C2CCC1CC(OC(=O)c1c[nH]c3ccccc13)C2 (stereo not given)	< 5.00	< 5.00
FC(F)(F)c1cccc(N2CCNCC2)c1 [TFMPP]	6.24	6.82
CN1C[C@H](C(=O)N[C@]2(C)O[C@@]3(O)[C@@H]4CCCN4C(=O)[C@H](Cc4ccccc4)N3C2=O)C=C2c3cccc4[nH]cc(c34)C[C@H]21 [12'-hydroxy-2'-methyl-5'alpha-(phenylmethyl)ergotaman-3',6',18-trione]	6.81	
NCCc1c[nH]c2ccc(O)cc12 [[3H]-5-HT]		8.72
O=C(c1ccc(F)cc1)C1CCN(CCn2c(=O)[nH]c3ccccc3c2=O)CC1 [3-(2-{4-[(4-fluorophenyl)carbonyl]piperidin-1-yl}ethyl)-1,2,3,4-tetrahydroquinazoline-2,4-dione]	< 5.00	5.49
NCCc1c[nH]c2ccc(C(N)=O)cc12 [[3H]-5-carboxamidotryptamine]	6.04	
CC[C@@H](CO)NC(=O)[C@@H]1C=C2c3cccc4c3c(cn4C)C[C@H]2N(C)C1	7.23	8.06
